Experimental data published in patent publication US4349378A, “Compounds useful as pesticides” (FBC Limited, priority 1978, dated 1982).

Legend:
Chickweed = experiment: (I) soil incorporation, growth regulatory or herbicidal effects; format: in vivo, Stellaria media; conditions: I soil incorporation 6.5 ppm, 21 days, 100=complete suppression
Excerpt: (§1) (I) an attaclay/sand dust and incorporated in John Innes I potting compost at a rate equivalent to 6.5 and 3.25 parts per million weight/volume of active ingredient to soil and placed in anodised aluminium pans, 19 cm long×9.5 cm wide×5.0 cm high. This is approximately equivalent to a surface application of 2.8 and 1.4 kg active ingredient per hectare cultivated to a depth of 5 cm. Seeds of the species listed below were sown in the treated soil, one species per pan, watered and placed in a controlled environment room (22° C.; 65-85% relative humidity and 14 hours artificial illumination at 17000 lux) for 21 days.
(§2) The plants were then visually assessed for any growth regulatory or herbicidal effects. All differences from an untreated control were scored on a scale from 0-100, where 0 signifies no effect and 100 signifies complete suppression.
(§3) The results are shown in the following table where I stands for soil incorporation and II for surface spray.

Fathen = experiment: as above; format: in vivo, Chenopodium album; conditions: I soil incorporation 6.5 ppm, 21 days, 100=complete suppression
Excerpt: as §1, §2, §3

Cotton = experiment: (II) surface spray, growth regulatory or herbicidal effects; format: in vivo, Gossypium sp.; conditions: 21 days, 100=complete suppression
Excerpt: (§4) (II) An aqueous suspension together with 1000 ppm of the wetting agent Lissapol NX. The surfaces of an additional set of pans with seeds already sown were then sprayed with 2.8 or 1.4 kg/ha in 450 liters/hectare, and the pans kept in the controlled environment room for 21 days.
as §2, §3

Tomato = experiment: as above; format: in vivo, Lycopersicon esculentum; conditions: 21 days, 100=complete suppression
Excerpt: as §4, §2, §3

Wheat = experiment: as above; format: in vivo, Triticum aestivum; conditions: 21 days, 100=complete suppression
Excerpt: as §4, §2, §3

Barley = experiment: as above; format: in vivo, Hordeum vulgare; conditions: 21 days, 100=complete suppression
Excerpt: as §4, §2, §3

Barnyard Grass = experiment: as above; format: in vivo, Echinochloa crus-galli; conditions: II surface spray 1.4 kg/ha (line 3.25 ppm), 21 days, 100=complete suppression
Excerpt: as §4, §2, §3

Rice = experiment: as above; format: in vivo, Oryza sativa; conditions: 21 days, 100=complete suppression
Excerpt: as §4, §2, §3

Carrot = experiment: as above; format: in vivo, Daucus carota; conditions: 21 days, 100=complete suppression
Excerpt: as §4, §2, §3

acetylcholinesterase = experiment: standard test indicative of insecticidal activity, inhibition of acetylcholinesterase; format: biochemical; conditions: 100 micromolar
Xanthomonas malvacearum = experiment: bacteriostatic test in dextrose nutrient broth; format: cell-based; conditions: 1,000 and 200 ppm weight/volume; 8 days at 25° C.
Protocol: A 1% suspension/solution of the product of Example 157 in polyethylene glycol (Carbowax 400) was added to a dextrose nutrient broth to give a concentration of 1,000 parts per million (ppm) weight/volume of medium. Dilution in test tubes was then carried out to give a concentration of 200 ppm weight/volume of medium. To 8 ml quantities of broth was added 0.2 ml of a dense broth culture of the bacterium causing black arm of cotton, Xanthomonas malvacearum. After 8 days incubation at 25° C., all the broth specimens were examined for signs of bacterial growth.

[1] = II surface spray 1.4 kg/ha (line 3.25 ppm)
[2] = II surface spray 2.8 kg/ha (line 6.5 ppm)

Row | SMILES | growth regulatory or herbicidal effect score (Chickweed) | growth regulatory or herbicidal effect score (Fathen) | growth regulatory or herbicidal effect score (Cotton; [1]) | growth regulatory or herbicidal effect score (Cotton; [2]) | growth regulatory or herbicidal effect score (Tomato; [1]) | growth regulatory or herbicidal effect score (Tomato; [2]) | growth regulatory or herbicidal effect score (Wheat; [1]) | growth regulatory or herbicidal effect score (Wheat; [2]) | growth regulatory or herbicidal effect score (Barley; [1]) | growth regulatory or herbicidal effect score (Barley; [2]) | growth regulatory or herbicidal effect score (Barnyard Grass) | growth regulatory or herbicidal effect score (Rice; [1]) | growth regulatory or herbicidal effect score (Rice; [2]) | growth regulatory or herbicidal effect score (Carrot; [1]) | growth regulatory or herbicidal effect score (Carrot; [2]) | inhibition of acetylcholinesterase (acetylcholinesterase) | bacterial growth (Xanthomonas malvacearum)
1 | CCOC(=O)C(CC)N(c1c(C)cccc1C)S(C)(=O)=O (centres unmarked) [Example 95] | 90 | 100 |  |  |  |  |  |  |  |  |  |  |  |  |  |  | 
2 | CCS(=O)(=O)N(CC#N)c1ccc(Cl)c(Cl)c1 [Example 137] |  |  | 0 | 0 | 0 | 0 | 0 | 0 | 0 | 0 | 90 | 0 | 0 | 0 | 0 |  | 
3 | Cc1ccc(N(CC#N)S(C)(=O)=O)cc1Cl [Example 131] |  |  | 0 | 0 | 0 | 0 | 0 | 0 | 0 | 0 |  | 0 | 0 | 0 | 0 |  | 
4 | CS(=O)(=O)N(CC(N)=S)c1ccc(Cl)c(Cl)c1 [Example 85, N-(thiocarbamoylmethyl)-3,4-dichloromethanesulphonanilide] |  |  | 0 | 0 | 0 | 0 | 0 | 0 | 0 | 0 | 90 | 0 | 0 | 0 | 0 |  | 
5 | Cc1ccc(N(CC(N)=S)S(C)(=O)=O)cc1Cl [Example 150] |  |  | 0 | 0 | 0 | 0 | 0 | 0 | 0 | 0 |  | 0 | 0 |  |  |  | 
6 | CCS(=O)(=O)N(CC(N)=S)c1ccc(Cl)c(Cl)c1 [Example 156] |  |  | 0 | 0 | 0 | 0 | 0 | 0 | 0 | 0 |  | 0 | 0 |  |  |  | 
7 | CNC(=O)ON=C(C)CN(c1c(C)cccc1C)S(C)(=O)=O [Example 248, N-[2-(methylcarbamoyloxyimino)propyl]-2',6'-dimethylmethanesulphonanilide] |  |  |  |  |  |  |  |  |  |  |  |  |  |  |  | 30% | 
8 | CS(=O)(=O)N(CC(N)=S)c1cccc(Cl)c1Cl [Example 157] |  |  |  |  |  |  |  |  |  |  |  |  |  |  |  |  | No growth
